In patent US20210169892A1, “MODULATORS OF THE INTEGRATED STRESS PATHWAY” (Calico Life Sciences LLC, priority 2017, published 2021) one finds EC50 data, which are given here for 25 compounds.

Structures are written as SMILES.

In this experiment the test system is HEK293T cells carrying the ATF4 luciferase reporter. The experiment in a line: ATF4-Luc assay (in vitro model of vanishing white matter disease). The experiment is classed as cell-based. The conditions noted are these: Homo sapiens, HEK-293T; HEK293T cells with ATF4 luciferase reporter, 1 μg/mL tunicamycin, 7 hours, One Glo luminescence. Put shortly: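 Stable HEK293T line with human ATF4 5′-UTR–firefly luciferase reporter treated with 1 μg/mL tunicamycin plus 200 nM compound for 7 h. Luminescence read; EC50 derived.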
For the compound `O=C(COc1ccc(Cl)c(F)c1)NC12CCC(NC(=O)[C@@H]3CCc4cc(F)ccc4O3)(CC1)C[C@@H]2O` [Compound 105, (2S)—N-{(3S)-4-[2-(4-chloro-3-fluorophenoxy)acetamido]-3-hydroxybicyclo[2.2.2]octan-1-yl}-6-fluoro-3,4-dihydro-2H-1-benzopyran-2-carboxamide], the EC50 is less than 10 nM.
Under `O=C(O)CCN1CC(C(=O)NC23CC(NC(=O)COc4ccc(Cl)c(F)c4)(C2)C3)Oc2ccc(Cl)cc21` (stereo not shown) [Compound 170, 3-[6-chloro-2-({3-[2-(4-chloro-3-fluorophenoxy)acetamido]bicyclo[1.1.1]pentan-1-yl}carbamoyl)-2,3-dihydro-4H-1,4-benzoxazin-4-yl]propanoic acid] stands 250 to 500 nM.
`O=C(COc1ccc(Cl)c(F)c1)NC12CCC(NC(=O)C3COc4ccccc4O3)(CC1)[C@H](O)C2` (stereo partly drawn) [Compound 123, N-{(2R)-4-[2-(4-chloro-3-fluorophenoxy)acetamido]-2-hydroxybicyclo[2.2.2]octan-1-yl}-2,3-dihydro-1,4-benzodioxine-2-carboxamide]: the EC50 was 250 to 500 nM.
As for `O=C(COc1ccc(Cl)c(F)c1)NC12CC(NC(=O)C3CN(C(=O)c4cccc(C(F)(F)F)c4)c4cc(Cl)ccc4O3)(C1)C2` (stereo not shown) [Compound 160, 6-chloro-N-{3-[2-(4-chloro-3-fluorophenoxy)acetamido]bicyclo[1.1.1]pentan-1-yl}-4-[3-(trifluoromethyl)benzoyl]-3,4-dihydro-2H-1,4-benzoxazine-2-carboxamide], the figure is greater than 2000 nM.
Under `O=C(CN1CCc2cc(Cl)ccc21)NC12CCC(NC(=O)COc3ccc(Cl)c(F)c3)(CC1)[C@@H](O)C2` [Compound 101, 2-(5-chloro-2,3-dihydro-1H-indol-1-yl)-N-{(3S)-4-[2-(4-chloro-3-fluorophenoxy)acetamido]-3-hydroxybicyclo[2.2.2]octan-1-yl}acetamide] stands 500 to 2000 nM.
Regarding `O=C(COc1ccc(Cl)c(F)c1)NC12CC(NC(=O)C3CN(C(=O)CCC(F)(F)F)c4cc(Cl)ccc4O3)(C1)C2` (stereo not shown) [Compound 148, 6-chloro-N-{3-[2-(4-chloro-3-fluorophenoxy)acetamido]bicyclo[1.1.1]pentan-1-yl}-4-(4,4,4-trifluorobutanoyl)-3,4-dihydro-2H-1,4-benzoxazine-2-carboxamide], the EC50 fell in the range of 50 to 250 nM.
As for `COC(C)(C)CN1CC(C(=O)NC23CC(NC(=O)COc4ccc(Cl)c(F)c4)(C2)C3)Oc2ccc(Cl)cc21` (stereo not shown) [Compound 187, 6-chloro-N-{3-[2-(4-chloro-3-fluorophenoxy)acetamido]bicyclo[1.1.1]pentan-1-yl}-4-(2-methoxy-2-methylpropyl)-3,4-dihydro-2H-1,4-benzoxazine-2-carboxamide], the figure is 10 to 50 nM; as for `O=C(NC12CC(NC(=O)C3COc4cc(Cl)c(Cl)cc4O3)(C1)C2)c1ccc(OC(F)(F)F)cn1` (stereo not shown) [Compound 132, N-{3-[(6,7-dichloro-2,3-dihydro-1,4-benzodioxine-2-carbonyl)amino]bicyclo[1.1.1]pentan-1-yl}-5-(trifluoromethoxy)pyridine-2-carboxamide], 50 to 250 nM.
Under `O=C(COc1ccc(Cl)c(F)c1)NC12CC(NC(=O)C3CC(=O)c4cc(Cl)ccc4O3)(C1)C2` (stereo not shown) [Compound 186, 6-chloro-N-{3-[2-(4-chloro-3-fluorophenoxy)acetamido]bicyclo[1.1.1]pentan-1-yl}-4-oxo-3,4-dihydro-2H-1-benzopyran-2-carboxamide] stands less than 10 nM; under `CSN1CC(C(=O)NC23CC(NC(=O)COc4ccc(Cl)c(F)c4)(C2)C3)Oc2ccc(Cl)cc21` (stereo not shown) [Compound 172, 6-chloro-N-{3-[2-(4-chloro-3-fluorophenoxy)acetamido]bicyclo[1.1.1]pentan-1-yl}-4-(methylsulfanyl)-3,4-dihydro-2H-1,4-benzoxazine-2-carboxamide], less than 10 nM; under `CSCCC(=O)N1CC(C(=O)NC23CC(NC(=O)COc4ccc(Cl)c(F)c4)(C2)C3)Oc2ccc(Cl)cc21` (stereo not shown) [Compound 162, 6-chloro-N-{3-[2-(4-chloro-3-fluorophenoxy)acetamido]bicyclo[1.1.1]pentan-1-yl}-4-[3-(methylsulfanyl)propanoyl]-3,4-dihydro-2H-1,4-benzoxazine-2-carboxamide], 50 to 250 nM.
As for `O=C(COc1ccc(Cl)c(F)c1)NC12CC(NC(=O)C3CN(C(=O)c4ccc(S(=O)(=O)F)cc4)c4cc(Cl)ccc4O3)(C1)C2` (stereo not shown) [Compound 147, 4-[6-chloro-2-({3-[2-(4-chloro-3-fluorophenoxy)acetamido]bicyclo[1.1.1]pentan-1-yl}carbamoyl)-2,3-dihydro-4H-1,4-benzoxazine-4-carbonyl]benzene-1-sulfonyl fluoride], the figure is 500 to 2000 nM.
As to `O=C(COc1ccc(Cl)c(F)c1)NC12CCC(NC(=O)C3CNc4ccccc4O3)(CC1)C[C@@H]2O` (stereo partly drawn) [Compound 110, N-{(3S)-4-[2-(4-chloro-3-fluorophenoxy)acetamido]-3-hydroxybicyclo[2.2.2]octan-1-yl}-3,4-dihydro-2H-1,4-benzoxazine-2-carboxamide], the concentration giving a half-maximal response (EC50) was 10 to 50 nM.
As for `Cc1oncc1C(=O)N1CC(C(=O)NC23CC(NC(=O)COc4ccc(Cl)c(F)c4)(C2)C3)Oc2ccc(Cl)cc21` (stereo not shown) [Compound 153, 6-chloro-N-{3-[2-(4-chloro-3-fluorophenoxy)acetamido]bicyclo[1.1.1]pentan-1-yl}-4-(5-methyl-1,2-oxazole-4-carbonyl)-3,4-dihydro-2H-1,4-benzoxazine-2-carboxamide], the figure is 10 to 50 nM; as for `O=C(COc1ccc(Cl)c(F)c1)NC12CC(NC(=O)[C@H]3COc4cc(Cl)ccc4O3)(C1)C2` [Compound 119, (2R)-6-chloro-N-{3-[2-(4-chloro-3-fluorophenoxy)acetamido]bicyclo[1.1.1]pentan-1-yl}-2,3-dihydro-1,4-benzodioxine-2-carboxamide], less than 10 nM; as for `O=C(COc1ccc(Cl)c(F)c1)NC12CC(NC(=O)C3CN(C(=O)CC(F)(F)F)c4cc(Cl)ccc4O3)(C1)C2` (stereo not shown) [Compound 182, 6-chloro-N-{3-[2-(4-chloro-3-fluorophenoxy)acetamido]bicyclo[1.1.1]pentan-1-yl}-4-(3,3,3-trifluoropropanoyl)-3,4-dihydro-2H-1,4-benzoxazine-2-carboxamide], 50 to 250 nM.
For `Cn1cnc(S(=O)(=O)N2CC(C(=O)NC34CC(NC(=O)COc5ccc(Cl)c(F)c5)(C3)C4)Oc3ccc(Cl)cc32)c1` (stereo not shown) [Compound 165, 6-chloro-N-{3-[2-(4-chloro-3-fluorophenoxy)acetamido]bicyclo[1.1.1]pentan-1-yl}-4-(1-methyl-1H-imidazole-4-sulfonyl)-3,4-dihydro-2H-1,4-benzoxazine-2-carboxamide], the EC50 is 10 to 50 nM.
`O=C(COc1ccc(Cl)c(F)c1)NC12CCC(NC(=O)[C@H]3CCc4cc(F)ccc4O3)(CC1)[C@@H](O)C2` [Compound 202, (2R)—N-{(2S)-4-[2-(4-chloro-3-fluorophenoxy)acetamido]-2-hydroxybicyclo[2.2.2]octan-1-yl}-6-fluoro-3,4-dihydro-2H-1-benzopyran-2-carboxamide]: the EC50 is less than 10 nM.
As for `O=C(COc1ccc(Cl)c(F)c1)NC12CCC(NC(=O)[C@H]3COc4ccccc4O3)(CC1)[C@@H](O)C2` [Compound 126, (2R)—N-{(2S)-4-[2-(4-chloro-3-fluorophenoxy)acetamido]-2-hydroxybicyclo[2.2.2]octan-1-yl}-2,3-dihydro-1,4-benzodioxine-2-carboxamide], the figure is less than 10 nM.
As to `O=C(COc1ccc(Cl)c(F)c1)NC12CC(NC(=O)C3CN(C(=O)[C@H]4C[C@@H]4F)c4cc(Cl)ccc4O3)(C1)C2` (stereo partly drawn) [Compound 138, 6-chloro-N-{3-[2-(4-chloro-3-fluorophenoxy)acetamido]bicyclo[1.1.1]pentan-1-yl}-4-[(1R,2S)-2-fluorocyclopropane-1-carbonyl]-3,4-dihydro-2H-1,4-benzoxazine-2-carboxamide], the EC50 lay within 250 to 500 nM.
As for `Cc1ncc(S(=O)(=O)N2CC(C(=O)NC34CC(NC(=O)COc5ccc(Cl)c(F)c5)(C3)C4)Oc3ccc(Cl)cc32)n1C` (stereo not shown) [Compound 137, 6-chloro-N-{3-[2-(4-chloro-3-fluorophenoxy)acetamido]bicyclo[1.1.1]pentan-1-yl}-4-(1,2-dimethyl-1H-imidazole-5-sulfonyl)-3,4-dihydro-2H-1,4-benzoxazine-2-carboxamide], the figure is greater than 2000 nM; as for `CN1CC(C(=O)NC23CCC(NC(=O)COc4ccc(Cl)c(F)c4)(CC2)[C@@H](O)C3)Oc2ccccc21` (stereo partly drawn) [Compound 111, N-{(3S)-4-[2-(4-chloro-3-fluorophenoxy)acetamido]-3-hydroxybicyclo[2.2.2]octan-1-yl}-4-methyl-3,4-dihydro-2H-1,4-benzoxazine-2-carboxamide], 50 to 250 nM; as for `O=C(COc1ccc(Cl)c(F)c1)NC12CCC(NC(=O)C3CCc4cc(Cl)ccc4O3)(CC1)[C@@H](O)C2` (stereo partly drawn) [Compound 203, 6-chloro-N-{(2S)-4-[2-(4-chloro-3-fluorophenoxy)acetamido]-2-hydroxybicyclo[2.2.2]octan-1-yl}-3,4-dihydro-2H-1-benzopyran-2-carboxamide], less than 10 nM.
As for `CN1C[C@@H](C(=O)NC23CCC(NC(=O)COc4ccc(Cl)c(F)c4)(CC2)[C@@H](O)C3)Oc2ccc(Cl)cc21` [Compound 107, 6-chloro-N-{(3S)-4-[2-(4-chloro-3-fluorophenoxy)acetamido]-3-hydroxybicyclo[2.2.2]octan-1-yl}-4-methyl-3,4-dihydro-2H-1,4-benzoxazine-2-carboxamide], the figure is less than 10 nM; as for `O=C(NC12CC(NC(=O)C3COc4cc(Cl)c(Cl)cc4O3)(C1)C2)c1cnc(C(F)F)cn1` (stereo not shown) [Compound 133, N-{3-[(6,7-dichloro-2,3-dihydro-1,4-benzodioxine-2-carbonyl)amino]bicyclo[1.1.1]pentan-1-yl}-5-(difluoromethyl)pyrazine-2-carboxamide], 10 to 50 nM.
